Results: PMC11984388, “A brain-accessible peptide modulates stroke inflammatory response and neurotoxicity by targeting BDNF-receptor TrkB-T1 specific interactome” (Theranostics, 2025)
Like-named read-outs stand apart in the source and are kept apart here. Residues, ends and D or L forms follow the SMILES beside them. *: point of attachment. Biotin = O=C1N[C@H]2[C@H](CS[C@H]2CCCCC(=O)*)N1

What was measured:
[1] = tested on: NeuN+ neurons and GFAP+ astrocytes of mixed cortical cultures; experiment: Peptide visualization in primary cultures (Fluorescein Avidin D); assay type: cell-based, rat; conditions: peptide 25 µM, 30 min; Fluorescein Avidin D with NeuN and GFAP double staining (Fig 1C)
[2] = tested on: primary cortical cultures; conditions: 25 µM
RhoGDI = experiment: Western blot of total RhoGDI levels; assay type: cell-based, rat; conditions: peptide 25 µM 30 min, mean, n = 6-7 (Fig S3)
Experimental: Ce lls were lyse d in RI P A buffer (50 mM Tris-HCl pH 8.0, 150 mM NaC l, 1% sodium deoxycholate , 1% NP-40, 0.1% SDS, 1 mM DT T), supple me nted with protease and phospha tase inhibitors as above, for 30 min at 4 °C. Then, cell lysa te s were sonic ated using a Bioruptor apparatus and centrifuga ted at 4 °C for 20 min at 10,000 rpm. The protein conce ntration in lysa te s was es tablished with BC A Prote in As say Kit (Thermo Fisher) follow ed by 5 min denaturalization in SDS-sa mple buffer at 95º. Equal amounts of total lysa te s were resolved in Tris-Glycine SDS-PAGE and transferre d to a nitroc ellulos e membrane (GE Healthca re ) in 25 mM Tris HCl pH 8.3, 250 mM glycine and 10% methanol, using an electr ic curre nt of 400 mA for 70 min. After transfer, membranes were sta ine d with a Ponceau S solution to chec k for its effic acy. Then, membranes were blocked for 30 min with a 5% non-fat […]
dry milk solution in Tris Buffere d Saline-Tween (TBS-T, 20 mM Tris HCl pH 7.5, 137 mM NaC l, 0.05% Tween-20) and incubated overnight at 4°C with prima ry antibodies . Next, membranes were was hed with TBS-T and incubated with the appropria te anti-rabbit or anti-mouse peroxidase-conjugated se condary antibodies (Bethyl) for 1 h. To conclude, immunore activity was detecte d using Clar ity Wes ter n ECL Blotting Substrate (BioRad) and band intensity was quantified by dens itome tric analys is (Photos hop, Adobe). Levels of the protein of interest were normalized using those of neuron- spe cific enolas e (NSE) present in the sa m e sa mple and express ed relative to values obtained in their respec tive controls, arbitrarily given a 100% value. NSE was use d as a neuronal loading control sinc e it is not af fe cted by NM DA treatment. Exceptionally, levels of TrkB -T1 were normalized to those of ß- actin in the comparison of prima ry mixed cultures and those of as trocytes . Multiple independent experiments were car r ied out and quantitated as detailed in the figure legends .
Cell transfection and gene reporter ass ays
Plasmids contained minimal CREB or MEF2 response elements upstream firefly luciferase reporter gene (respectively, pCRE or pMEF2; see details in Supplementary Table 1). Primary cultures, without the AraC treatment, were transfected at 11 DIVs with 0.4 µg of plasmids using Lipofectamine 2000. […] Protein extracts were obtained using Passive Lysis Buffer (Promega, Cat# E1941) and luciferase activity was detected by a luminometer (GloMax 96 microplate luminometer, Promega), using REAP buffer (25 mM glycylglycine, 15 mM SO4Mg, 4 mM EGTA, 15 mM potassium phosphate pH 7.8, 3.3 mM ATP, 1 mM DTT, 75 µM luciferin). […]

GFAP+/C3+ cells = experiment: Immunohistochemistry of reactive astrocytes in ischemic brain; assay type: in vivo, mice; conditions: 3 nmol/g 1 h after damage; early after injury (5 h); versus TMyc
Experimental: The brains of animals injected one hour af ter the initiation of the photothrombotic damage with vehicle (saline), TMyc or TT1Ct (3 nmol/g) were process ed and cryoprote cted as before indicated. The duration of damage before sa cri f i ce was 5 h (male and female) or 24 h (male).
Coronal froze n se ctions were incubated with blocking solution as des cribe d in flota tion for 1 h at room temperature and then overnight with prima ry antibodies diluted in 4% goat se rum and 0.3% Triton X-100 in PBS at 4°C. After was hing, slides were incubated 1 h with Alexa Fluor 546- conjugated goat anti-rabbit or AlexaFluor 647- conjugated goat anti-mouse se condary antibodies to visua liz e the prima ry antibodies and DAPI (5 μg/ml). Only for Iba1 sta ining, blocking solution was 2.5% BS A, 5% goat se rum, 0.5% Triton X-100 in PBS, and se ctions were incubated with prima ry antibody 24 h at RT follow ed by was hing and Alexa Fluor 546-conjugated goat anti-rabbit and DAPI incubation for 1 h. Sections were then was hed in PBS, mounted on slides , dried for 15 min at 37 °C on a hot plate, or air dried overnight and then cover slipped with DPX or Prolong Diamond. Ce ll Obs erve d images were obtained with Zeiss microscope Observe r.Z1 using a 10x Plan-Apochromatic objective. […]

[3] = then BDNF 100 ng/ml 30 min, relative to basal Bio-TMyc (100%)

Compound	Peptide entry into neurons and astrocytes [1]	Relative cell viability (%) ([2]; 4 h)	Relative cell viability (%) ([2]; 6 h)	Relative cell viability (%) ([2]; 24 h)	RhoGDI total levels (RhoGDI; basal, relative to basal conditions with Bio-TMyc (100%))	RhoGDI total levels (RhoGDI; [3])	RhoGDI total levels (RhoGDI; then NMDA 30 min, relative to basal Bio-TMyc (100%))	Effect on GFAP+/C3+ cells at the infarct boundary (GFAP+/C3+ cells)
CC[C@H](C)[C@H](NC(=O)[C@H](CC(C)C)NC(=O)[C@H](CCCCN)NC(=O)[C@H](CCC(N)=O)NC(=O)[C@H](CCC(=O)O)NC(=O)[C@H](CCC(=O)O)NC(=O)[C@H](C)NC(=O)[C@H](CCCNC(=N)N)NC(=O)[C@H](CCCNC(=N)N)NC(=O)[C@H](CCCNC(=N)N)NC(=O)[C@H](CCC(N)=O)NC(=O)[C@H](CCCNC(=N)N)NC(=O)[C@H](CCCNC(=N)N)NC(=O)[C@H](CCCCN)NC(=O)[C@H](CCCCN)NC(=O)[C@H](CCCNC(=N)N)NC(=O)CNC(=O)[C@H](Cc1ccc(O)cc1)NC(=O)CCCC[C@@H]1SC[C@@H]2NC(=O)N[C@@H]21)C(=O)N[C@@H](CO)C(=O)N[C@@H](CCC(=O)O)C(=O)N[C@@H](CCC(=O)O)C(=O)N[C@@H](CC(=O)O)C(=O)N[C@@H](CC(C)C)C(=O)N[C@@H](CC(C)C)C(=O)N[C@@H](CCCNC(=N)N)C(N)=O [Bio-TMyc, reference compound] (Biotin-YGRKKRRQRRRAEEQKLISEEDLLR-NH2)	found inside both NeuN+ (arrowheads) and GFAP+ (asterisks) cells	100%	97%	97%	100%	92%		
CC[C@H](C)[C@H](NC(=O)[C@H](CCCCN)NC(=O)[C@H](Cc1c[nH]cn1)NC(=O)[C@H](Cc1ccccc1)NC(=O)[C@H](CC(C)C)NC(=O)[C@@H](NC(=O)[C@H](Cc1ccccc1)NC(=O)[C@H](CCCNC(=N)N)NC(=O)[C@H](CCCNC(=N)N)NC(=O)[C@H](CCCNC(=N)N)NC(=O)[C@H](CCC(N)=O)NC(=O)[C@H](CCCNC(=N)N)NC(=O)[C@H](CCCNC(=N)N)NC(=O)[C@H](CCCCN)NC(=O)[C@H](CCCCN)NC(=O)[C@H](CCCNC(=N)N)NC(=O)CNC(=O)[C@H](Cc1ccc(O)cc1)NC(=O)CCCC[C@@H]1SC[C@@H]2NC(=O)N[C@@H]21)C(C)C)C(=O)N1CCC[C@H]1C(=O)N[C@@H](CC(C)C)C(=O)N[C@@H](CC(=O)O)C(=O)NCC(N)=O [Bio-sTT1Ct] (Biotin-YGRKKRRQRRRFVLFHKIPLDG-NH2)	found inside both NeuN+ (arrowheads) and GFAP+ (asterisks) cells		99%	103%		93%	91%	
Ac-YGRKKRRQRRRPPFVLFHKIPLDG-NH2 [TT1Ct]								strong decrease
